Results reported in paper PMC11396129, “Oxindole–benzothiazole hybrids as CDK2 inhibitors and anticancer agents: design, synthesis and biological evaluation” (BMC Chemistry, 2024).

Experiments:
Format in all cases: cell-based, human
MDA-MB-468 = experiment: NCI 60 panel growth inhibition (SRB), breast cancer; details: for GI%: MDA-MB-468, 10 μM
Protocol: (§1) Screening of cytotoxic activity against a panel of sixty human tumor cell lines The selected compounds by NCI were evaluated for their anticancer activity in a two- stage process. […] Then, the output from the single dose screen is reported as a mean graph. […] Assay protocol. […] For a typical screening experiment, cells are inoculated into 96 well microtiter plates in 100 µL at plating densities ranging from 5000 to 40,000 cells/well depending on the doubling time of individual cell lines. […] After 24 h, two plates of each cell line are fixed in situ with TCA, to represent a measurement of the cell population for each cell line at the time of drug addition (Tz). The experimental drugs are solubilized in dimethyl sulfoxide at 400-fold the desired final maximum test concentration and stored frozen prior to use. At the time of drug addition, an aliquot of frozen concentrate is thawed and diluted to twice the desired final maximum test concentration with complete medium containing 50 µg/mL gentamicin. Additional four, 10-fold or ½ log serial dilutions are made to provide a total of five drug concentrations plus control. […] For adherent cells, the assay is terminated by the addition of cold TCA. […] The supernatant is discarded, and the plates are washed five times with tap water and air dried. […] Using the seven absorbance measurements [time zero, (Tz), control growth, (C), and test growth in the presence of drug at the five concentration levels (Ti)], the percentage growth is calculated at each of the drug concentrations levels. Percentage growth inhibition is calculated as: [(Ti Tz)/(C–Tz)] x 100 for concentrations for which Ti>/=Tz and [(Ti-Tz)/Tz] x 100 for concentrations for which Ti < Tz. Three dose response parameters are calculated for each experimental agent. […] The drug concentration resulting in total growth inhibition (TGI) is calculated from Ti = Tz. […] Values are calculated for each of these three parameters if the level of activity is reached; however, if the effect is not reached or is exceeded, the value for that parameter is expressed as greater or less than the maximum or minimum concentration tested.

HS 578T = experiment: as above; details: for GI%: 10 μM
Protocol: as §1

T-47D = experiment: as above
Protocol: as §1

MDA-MB-231/ATCC = experiment: as above; details: for GI%: 10 μM
Protocol: as §1

MCF7 = experiment: as above; details: for GI%: MCF7, 10 μM
Protocol: as §1

BT-549 = experiment: as above; details: for GI%: BT-549, 10 μM
Protocol: as §1

HCT-15 = experiment: NCI 60 panel growth inhibition (SRB), colon cancer; details: for GI%: HCT-15, 10 μM
Protocol: as §1

HCT-116 = experiment: NCI 60 panel growth inhibition (SRB), colon cancer; details: for GI%: HCT-116, 10 μM
Protocol: as §1

COLO 205 = experiment: NCI 60 panel growth inhibition (SRB), colon cancer
Protocol: as §1

SW-620 = experiment: NCI 60 panel growth inhibition (SRB), colon cancer; details: for GI%: SW-620, 10 μM
Protocol: as §1

HCC-2998 = experiment: NCI 60 panel growth inhibition (SRB), colon cancer; details: for GI%: HCC-2998, 10 μM
Protocol: as §1

KM12 = experiment: NCI 60 panel growth inhibition (SRB), colon cancer; details: for GI%: KM12, 10 μM
Protocol: as §1

UACC-257 = experiment: NCI 60 panel growth inhibition (SRB), melanoma; details: for GI%: UACC-257, 10 μM
Protocol: as §1

SK-MEL-28 = experiment: NCI 60 panel growth inhibition (SRB), melanoma; details: for GI%: SK-MEL-28, 10 μM
Protocol: as §1

MALME-3M = experiment: NCI 60 panel growth inhibition (SRB), melanoma; details: for GI%: 10 μM
Protocol: as §1

LOX IMVI = experiment: NCI 60 panel growth inhibition (SRB), melanoma; details: for GI%: 10 μM
Protocol: as §1

M14 = experiment: NCI 60 panel growth inhibition (SRB), melanoma; details: for GI%: M14, 10 μM
Protocol: as §1

SK-MEL-5 = experiment: NCI 60 panel growth inhibition (SRB), melanoma; details: for GI%: SK-MEL-5, 10 μM
Protocol: as §1

MDA-MB-435 = experiment: NCI 60 panel growth inhibition (SRB), melanoma; details: for GI%: MDA-MB-435, 10 μM
Protocol: as §1

UACC-62 = experiment: NCI 60 panel growth inhibition (SRB), melanoma; details: for GI%: UACC-62, 10 μM
Protocol: as §1

A498 = experiment: NCI 60 panel growth inhibition (SRB), renal cancer; details: for GI%: A498, 10 μM
Protocol: as §1

SN12C = experiment: NCI 60 panel growth inhibition (SRB), renal cancer; details: for GI%: 10 μM
Protocol: as §1

ACHN = experiment: NCI 60 panel growth inhibition (SRB), renal cancer; details: for GI%: 10 μM
Protocol: as §1

CAKI-1 = experiment: NCI 60 panel growth inhibition (SRB), renal cancer; details: for GI%: CAKI-1, 10 μM
Protocol: as §1

DU-145 = experiment: NCI 60 panel growth inhibition (SRB), prostate cancer; details: for GI%: DU-145, 10 μM
Protocol: as §1

PC-3 = experiment: as above; details: for GI%: PC-3, 10 μM
Protocol: as §1

HOP-62 = experiment: NCI 60 panel growth inhibition (SRB), non-small cell lung cancer
Protocol: as §1

NCI-H23 = experiment: as above; details: for GI%: NCI-H23, 10 μM
Protocol: as §1

NCI-H226 = experiment: as above; details: for GI%: NCI-H226, 10 μM
Protocol: as §1

NCI-H460 = experiment: as above; details: for GI%: NCI-H460, 10 μM
Protocol: as §1

NCI-H522 = experiment: as above; details: for GI%: NCI-H522, 10 μM
Protocol: as §1

HOP-92 = experiment: as above; details: for GI%: HOP-92, 10 μM
Protocol: as §1

A549/ATCC = experiment: as above; details: for GI%: 10 μM
Protocol: as §1

EKVX = experiment: as above; details: for GI%: 10 μM
Protocol: as §1

NCI-H322M = experiment: as above; details: for GI%: 10 μM
Protocol: as §1

What does the source list for `COc1ccc2c(c1)C(=NNC(=O)COc1c(OC)cccc1-c1nc3ccccc3s1)C(=O)N2` [Compound 9i, 2-(2-(Benzo[d]thiazol-2-yl)-6-methoxyphenoxy)-N′-(5-methoxy-2-oxoindolin-3-ylidene)acetohydrazide]?
GI% (MDA-MB-468): 30.66%; GI% (HS 578T): – (GI% < 5%); GI% (T-47D; 10 μM): 37.57%; GI% (MDA-MB-231/ATCC): 10.30%; GI% (MCF7): 23.12%; GI% (BT-549): 16.10%; GI% (HCT-15): 9.87%; GI% (HCT-116): 17.55%; GI% (COLO 205; COLO 205, 10 μM): – (GI% < 5%); GI% (SW-620): – (GI% < 5%); GI% (HCC-2998): – (GI% < 5%); GI% (KM12): 8.46%; GI% (UACC-257): – (GI% < 5%); GI% (SK-MEL-28): – (GI% < 5%); GI% (MALME-3M): 12.81%; GI% (LOX IMVI): – (GI% < 5%); GI% (M14): 7.92%; GI% (SK-MEL-5): 51.82%; GI% (MDA-MB-435): – (GI% < 5%); GI% (UACC-62): 25.33%; GI% (A498): – (GI% < 5%); GI% (SN12C): 14.66%; GI% (ACHN): 6.51%; GI% (CAKI-1): 24.98%; GI% (DU-145): – (GI% < 5%); GI% (PC-3): 43.62%; GI% (HOP-62; HOP-62, 10 μM): – (GI% < 5%); GI% (NCI-H23): 11.65%; GI% (NCI-H226): 29.04%; GI% (NCI-H460): – (GI% < 5%); GI% (NCI-H522): 7.04%; GI% (HOP-92): 31.66%; GI% (A549/ATCC): 18.26%; GI% (EKVX): 24.10%; GI% (NCI-H322M): 5.89%

What does the source list for `COc1ccc2c(c1)C(=NNC(=O)COc1cc(-c3nc4ccccc4s3)ccc1OC)C(=O)N2` [Compound 9o, 2-(5-(Benzo[d]thiazol-2-yl)-2-methoxyphenoxy)-N′-(5-methoxy-2-oxoindolin-3-ylidene)acetohydrazide]?
GI50 (MDA-MB-468; Homo sapiens, MDA-MB-468, five dose): 3.72 µM; GI% (MDA-MB-468): 60.54%; GI% (HS 578T): 34.64%; GI50 (HS 578T; Homo sapiens, five dose): 24.8 µM; GI50 (T-47D; Homo sapiens, T47D, five dose): 41 µM; GI% (MDA-MB-231/ATCC): 75.41%; GI50 (MDA-MB-231/ATCC; Homo sapiens, five dose): 5.44 µM; GI50 (MCF7; Homo sapiens, MCF7, five dose): 3.44 µM; GI% (MCF7): 82.77%; GI% (BT-549): 33.89%; GI50 (BT-549; Homo sapiens, BT-549, five dose): 17.6 µM; GI% (HCT-15): 127.40%; GI50 (HCT-15; Homo sapiens, HCT-15, five dose): 3.6 µM; GI% (HCT-116): 87.90%; GI50 (HCT-116; Homo sapiens, HCT-116, five dose): 4.5 µM; GI50 (COLO 205; Homo sapiens, COLO 205, five dose): 10.6 µM; GI50 (SW-620; Homo sapiens, SW-620, five dose): 2.27 µM; GI% (SW-620): 148.26%; GI% (HCC-2998): 44.35%; GI50 (HCC-2998; Homo sapiens, HCC-2998, five dose): 5.34 µM; GI50 (KM12; Homo sapiens, KM12, five dose): > 100 µM; GI% (KM12): 36.53%; GI50 (UACC-257; Homo sapiens, UACC-257, five dose): > 100 µM; GI% (UACC-257): – (GI% < 5%); GI50 (SK-MEL-28; Homo sapiens, SK-MEL-28, five dose): > 100 µM; GI% (SK-MEL-28): 37.85%; GI% (MALME-3M): 35.23%; GI50 (MALME-3M; Homo sapiens, five dose): 2.28 µM; GI% (LOX IMVI): 160.95%; GI50 (LOX IMVI; Homo sapiens, five dose): 4.09 µM; GI50 (M14; Homo sapiens, M14, five dose): 47.4 µM; GI% (M14): 39.13%; GI50 (SK-MEL-5; Homo sapiens, SK-MEL-5, five dose): 41.5 µM; GI% (SK-MEL-5): 24.21%; GI50 (MDA-MB-435; Homo sapiens, MDA-MB-435, five dose): 20.6 µM; GI% (MDA-MB-435): 96.57%; GI50 (UACC-62; Homo sapiens, UACC-62, five dose): 59.3 µM; GI% (UACC-62): – (GI% < 5%); GI% (A498): – (GI% < 5%); GI50 (A498; Homo sapiens, A498, five dose): > 100 µM; GI% (SN12C): 24.01%; GI50 (SN12C; Homo sapiens, five dose): 25.6 µM; GI% (ACHN): 96.99%; GI50 (ACHN; Homo sapiens, five dose): 6.7 µM; GI% (CAKI-1): 72.22%; GI50 (CAKI-1; Homo sapiens, CAKI-1, five dose): 56.2 µM; GI% (DU-145): 130.12%; GI50 (DU-145; Homo sapiens, DU-145, five dose): 2.92 µM; GI50 (PC-3; Homo sapiens, PC-3, five dose): 3.78 µM; GI% (PC-3): 49.56%; GI50 (HOP-62; Homo sapiens, HOP-62, five dose): 7.84 µM; GI50 (NCI-H23; Homo sapiens, NCI-H23, five dose): 3.03 µM; GI% (NCI-H23): 84.74%; GI50 (NCI-H226; Homo sapiens, NCI-H226, five dose): 21.3 µM; GI% (NCI-H226): 5.08%; GI50 (NCI-H460; Homo sapiens, NCI-H460, five dose): 9.26 µM; GI% (NCI-H460): 106.89%; GI50 (NCI-H522; Homo sapiens, NCI-H522, five dose): 48 µM; GI% (NCI-H522): 5.70%; GI% (HOP-92): 15.22%; GI50 (HOP-92; Homo sapiens, HOP-92, five dose): 51.9 µM; GI% (A549/ATCC): 39.87%; GI50 (A549/ATCC; Homo sapiens, five dose): 30.9 µM; GI% (EKVX): 55.62%; GI50 (EKVX; Homo sapiens, five dose): 20 µM; GI% (NCI-H322M): 9.70%; GI50 (NCI-H322M; Homo sapiens, five dose): > 100 µM
